Measurements: patent US9963674B2, “Age-modified cells and methods for making age-modified cells” (Memorial Sloan-Kettering Cancer Center, priority 2013, dated 2018)

How the values were obtained:
Type in all cases: cell-based, human
iPSC-derived fibroblasts = test: Telomere length measurement by HT-QFISH in transfected iPSC-derived fibroblasts; settings: Q-FISH
Experimental: Cells were plated on a clear-bottom, black-walled, 96-well plate, including 4 well replicates per sample, and high throughput quantitative fluorescence in situ hydridization (HT-QFISH) was performed as previously described (Canela et al., Proc Natl Acad Sci USA 104:5300-5305 (2007)). Images were captured with the Operetta using a 20× objective. Image processing was performed using Harmony high content analysis software. Telomere length values were measured using individual telomere spots corresponding to the specific binding of a Cy3-labeled telomeric probe (>600 spots per sample) in quadruplicate samples, fluorescence intensities were converted into kilobases using control cell lines of known telomere length as described previously (Canela et al., Proc Natl Acad Sci USA 104:5300-5305 (2007) and McIlrath et al., Cancer research 61: 912-915 (2001)).

iPSC-derived mDA neurons [1] = test: Neurite/dendrite quantification (TUJ1, MAP2) in iPSC-derived mDA neurons
Experimental: (§1) Cells were fixed in 4% paraformaldehyde for 15 minutes. Blocking was performed in phosphate-buffered saline supplemented with 1% BSA, and 0.3% Triton X-100 for 30 minutes to 1 hour. Cells were stained overnight at 4° C. with primary antibodies diluted in blocking buffer. Following several washes, cells were stained with appropriate Alexa Fluor-labeled secondary antibodies (Molecular Probes, Carlsbad, Calif.) at 1:500 in blocking buffer for 30 minutes to 3 hours at room temperature. Cells were counterstained with 4′,6-diamidino-2-phenylindole (DAPI; Thermo Fisher, Rockford, Ill.) to visualize nuclei. Images were acquired with an Olympus IX81 microscope using a Hamamatsu ORCA CCD camera.
Following immunostaining with MAP2 to label dendrites, randomly chosen images of GFP+ cells were manually acquired on an Olympus IX81 microscope using a Hamamatsu ORCA CCD camera using a 40× objective. Dendrite lengths were measured using ImageJ to trace each labeled neurite extending from GFP+ nuclei. Cells with perinuclear MAP2 staining were given a zero. GFP+ nuclei without MAP2 staining as well as cells with condensed GFP+ nuclei were not scored. Fifty cells per condition were assessed for each of three independent differentiations.

iPSC-derived mDA neurons [2] = test: mDA neuron marker expression (NURR1, TH) as sign of acute toxicity
Experimental: as §1
Cells were collected with a cell lifter (Corning, Tewksbury, Mass.) in ice-cold phosphate-buffered saline without calcium or magnesium (PBS−/−). Cell pellets were rapidly frozen on ethanol and dry ice and stored at −80° C. Cell pellets were thawed on ice and resuspended in 50-200 μl RIPA lysis buffer (50 mM Tris-HCl pH 8.0, 120 mM NaCl, 6 mM EDTA, 0.5% NP-40) with 1% sodium dodecyl sulfate (SDS). Cell suspensions were vortexed at 15-minute intervals during a 45-minute incubation on ice. Lysates were isolated following a 10,000 rpm spin for 10 minutes at 4° C. 20-40 μg samples were further diluted with 4× Laemmli sample buffer, boiled for 5 minutes at 95° C., and loaded onto a NuPAGE 4-12% Bis-Tris precast gel (Life Technologies). Gel electrophoresis was performed at 100 V for 2 hours. Gels were transferred to a methanol activated PVDF membrane using the XCell II Blot Module (Life Technologies) according to the manufacturer's instructions. Blots were blocked in 3% bovine serum albumin (BSA) in Tris buffered saline plus 0.1% Tween-20 (TBS-T) for 45 minutes at room temperature. […]
Following several washes with TBS-T, blots were incubated in appropriate HRP-labeled secondary antibodies (Jackson ImmunoResearch, West Grove, Pa.) for 1 hour at room temperature. […] Densitometry quantification was performed using ImageJ on blots from three independent experiments.

GFP-progerin: progerin (truncated lamin A) fused to GFP, SEQ ID No. 2, overexpressed via modified-RNA or hSyn lentivirus
percentage of short telomeres (iPSC-derived fibroblasts; telomeres less than 2 kb): increase in the percentage of short telomeres | telomere length (iPSC-derived fibroblasts; transfected iPSC-derived fibroblasts): decrease in overall length | established neurites (TUJ1 staining) (iPSC-derived mDA neurons [1]; 5 days of exposure, differentiated (day 65) mDA neurons): breakdown of established neurites | average dendrite length (MAP2) (iPSC-derived mDA neurons [1]; mDA neurons from young and old donor iPSCs, 5 days): marked reduction in average dendrite length | mDA neuron markers NURR1 and TH (iPSC-derived mDA neurons [2]; PD- and control-iPSC-derived mDA neurons, day 65, 5 days): unchanged | percentages of iPSC-derived neurons expressing NURR1 and TH (iPSC-derived mDA neurons [2]; young and old donor iPSC-derived mDA neurons): remained unchanged
